Test: xn = mol fraction of the nth substance listed

C1CCC2=[NH+]CCCN2CC1.c1nc[n-]n1 + CCCCO
303.15 K, 100 kPa
Settings	viscosity [mPa·s]
x1 = 0.1001	6.47
x1 = 0.2	12.31
x1 = 0.2999	22.82
x1 = 0.4003	42.54
x1 = 0.4989	74.34
x1 = 0.6002	128.6
x1 = 0.7008	204.7
x1 = 0.7993	423.5
x1 = 0.9002	608.2

C=CC(=O)OC + CCCCO
viscosity [mPa·s], 101.33 kPa
Settings	308.15 K	318.15 K
x1 = 0.0466	1.721	1.393
x1 = 0.1448	1.322	1.115
x1 = 0.2429	1.042	0.908
x1 = 0.3387	0.847	0.755
x1 = 0.4481	0.688	0.625
x1 = 0.5003	0.63	0.575
x1 = 0.5436	0.589	0.539
x1 = 0.6469	0.512	0.468
x1 = 0.7461	0.459	0.416
x1 = 0.8469	0.422	0.375
x1 = 0.9456	0.399	0.346

C=CC(=O)OCCCC + CCCCO
101.33 kPa
Settings	viscosity [mPa·s]
293.15 K, x1 = 0.0999	2.173
293.15 K, x1 = 0.2001	1.725
293.15 K, x1 = 0.2999	1.448
293.15 K, x1 = 0.3998	1.245
293.15 K, x1 = 0.5002	1.117
293.15 K, x1 = 0.6002	1.025
293.15 K, x1 = 0.7002	0.9619
293.15 K, x1 = 0.8	0.9168
293.15 K, x1 = 0.9	0.8882
303.15 K, x1 = 0.0999	1.718
303.15 K, x1 = 0.1998	1.385
303.15 K, x1 = 0.3006	1.185
303.15 K, x1 = 0.3999	1.035
303.15 K, x1 = 0.4992	0.9378
303.15 K, x1 = 0.5983	0.8682
303.15 K, x1 = 0.6991	0.8213
303.15 K, x1 = 0.8002	0.784
303.15 K, x1 = 0.9003	0.7678
313.15 K, x1 = 0.1004	1.291
313.15 K, x1 = 0.2001	1.018
313.15 K, x1 = 0.3002	0.8796
313.15 K, x1 = 0.3999	0.7948
313.15 K, x1 = 0.4994	0.7351
313.15 K, x1 = 0.5998	0.7091
313.15 K, x1 = 0.6999	0.6745
313.15 K, x1 = 0.7578	0.6676
313.15 K, x1 = 0.8999	0.6659

CCCC=O + CCCCO
viscosity [mPa·s], 100 kPa
Settings	294.53 K	294.63 K	319.13 K	320.13 K
x2 = 0.59	–	5.78	2.552	–
x2 = 0.9	5.49	–	–	2.98

CCCCCC + CCCCO
viscosity [mPa·s]
Settings	298.15 K	313.15 K	318.15 K
101 kPa, x2 = 0.08	0.33	–	0.266
101 kPa, x2 = 0.1284	0.345	–	0.284
101 kPa, x2 = 0.1441	0.35	–	0.29
101 kPa, x2 = 0.2	0.385	–	0.311
101 kPa, x2 = 0.28	0.415	–	0.33
101.3 kPa, x2 = 0.0999	0.3222	0.2741	–
101.3 kPa, x2 = 0.1997	0.3628	0.306	–
101.3 kPa, x2 = 0.299	0.4227	0.3503	–
101.3 kPa, x2 = 0.4007	0.5201	0.4169	–
101.3 kPa, x2 = 0.499	0.642	0.5063	–
101.3 kPa, x2 = 0.5988	0.8264	0.6311	–
101.3 kPa, x2 = 0.6996	1.082	0.8166	–
101.3 kPa, x2 = 0.8	1.421	1.041	–
101.3 kPa, x2 = 0.8994	1.888	1.33	–
101.33 kPa, x1 = 0.0971	1.848	–	–
101.33 kPa, x1 = 0.1707	1.496	–	–
101.33 kPa, x1 = 0.2625	1.169	–	–
101.33 kPa, x1 = 0.3521	0.909	–	–
101.33 kPa, x1 = 0.4142	0.778	–	–
101.33 kPa, x1 = 0.562	0.539	–	–
101.33 kPa, x1 = 0.6624	0.44	–	–
101.33 kPa, x1 = 0.8147	0.348	–	–
101.33 kPa, x1 = 0.9267	0.306	–	–

CCCCCOC(C)=O + CCCCO
viscosity [mPa·s], 101.33 kPa
Settings	x1 = 0.1138	x1 = 0.2047	x1 = 0.3089	x1 = 0.4008	x1 = 0.5	x1 = 0.6103	x1 = 0.7064	x1 = 0.8088	x1 = 0.9025
293.15 K	2.52	2.275	2.024	1.825	1.633	1.443	1.295	1.154	1.039
303.15 K	2.02	1.838	1.649	1.499	1.353	1.206	1.092	0.982	0.891
313.15 K	1.515	1.395	1.269	1.167	1.066	0.964	0.883	0.805	0.739
323.15 K	1.009	0.948	0.883	0.83	0.776	0.72	0.674	0.629	0.59

CCCCCOC(C)=O + CCCCOC(C)=O
298.15 K, 101.33 kPa
Settings	viscosity [mPa·s]
x2 = 0.1116	0.834
x2 = 0.2559	0.81
x2 = 0.3941	0.787
x2 = 0.5285	0.76
x2 = 0.6578	0.738
x2 = 0.7859	0.715
x2 = 0.9088	0.694

C=CC(=O)OC + CCCCn1cc[n+](C)c1.F[B-](F)(F)F
303.15 K, 101 kPa
Settings	viscosity [mPa·s]
x2 = 0.5005	16.06
x2 = 0.9242	63.95

CN(C)CCO + CCCCn1cc[n+](C)c1.F[P-](F)(F)(F)(F)F
viscosity [mPa·s], 101 kPa
Settings	x1 = 0.1221	x1 = 0.2143	x1 = 0.3182	x1 = 0.4405	x1 = 0.5166	x1 = 0.605	x1 = 0.709	x1 = 0.8063	x1 = 0.9128
293.15 K	–	–	87.91	60.57	47.58	34.73	–	–	7.95
298.15 K	–	88.45	66.23	45.68	36.09	27.08	–	–	6.67
303.15 K	–	67.51	50.77	35.67	28.45	–	–	–	5.64
308.15 K	67.28	52.1	39.24	27.9	–	–	–	7.99	4.78
313.15 K	52.9	41.46	31.33	–	–	–	9.84	6.74	4.13
318.15 K	42.39	33.36	25.47	–	–	–	8.35	5.74	3.59
323.15 K	35.09	27.71	–	–	–	9.86	7.12	4.99	3.18

C=CC(=O)OC + CCCO
viscosity [mPa·s], 101.33 kPa
Settings	308.15 K	318.15 K
x1 = 0.0501	1.354	1.107
x1 = 0.1464	1.081	0.916
x1 = 0.2331	0.9	0.782
x1 = 0.3469	0.727	0.648
x1 = 0.4436	0.622	0.561
x1 = 0.5011	0.572	0.519
x1 = 0.5436	0.541	0.492
x1 = 0.6429	0.483	0.439
x1 = 0.7442	0.441	0.397
x1 = 0.8449	0.413	0.365
x1 = 0.9424	0.396	0.343

CCCCCC + CCCO
viscosity [mPa·s]
Settings	298.15 K	308.15 K
100 kPa, x1 = 0.0603	1.619	–
100 kPa, x1 = 0.0992	1.44	–
100 kPa, x1 = 0.2086	1.07	–
100 kPa, x1 = 0.4056	0.6737	–
100 kPa, x1 = 0.5016	0.5493	–
100 kPa, x1 = 0.5979	0.4564	–
100 kPa, x1 = 0.7014	0.3861	–
100 kPa, x1 = 0.8029	0.3467	–
100 kPa, x1 = 0.9039	0.3116	–
100 kPa, x1 = 0.9486	0.3029	–
100 kPa, x2 = 0.0679	0.3219	0.2901
100 kPa, x2 = 0.1319	0.3383	0.3038
100 kPa, x2 = 0.2357	0.3688	0.3515
100 kPa, x2 = 0.3681	0.4378	0.3916
100 kPa, x2 = 0.4848	0.5309	0.4635
100 kPa, x2 = 0.5884	0.6557	0.5724
100 kPa, x2 = 0.6811	0.8015	0.6603
100 kPa, x2 = 0.7644	0.998	0.8293
100 kPa, x2 = 0.8398	1.172	0.9551
100 kPa, x2 = 0.9083	1.427	1.177
100 kPa, x2 = 0.9708	1.762	1.427
101.33 kPa, x2 = 0.1148	0.34	–
101.33 kPa, x2 = 0.1407	0.345	–
101.33 kPa, x2 = 0.2154	0.369	–
101.33 kPa, x2 = 0.3704	0.451	–
101.33 kPa, x2 = 0.5278	0.603	–
101.33 kPa, x2 = 0.6309	0.75	–
101.33 kPa, x2 = 0.7618	1.038	–
101.33 kPa, x2 = 0.8626	1.349	–
101.33 kPa, x2 = 0.9594	1.756	–

C1CCC2=[NH+]CCCN2CC1.c1nc[n-]n1 + CCO
303.15 K, 100 kPa
Settings	viscosity [mPa·s]
x1 = 0.1001	4.38
x1 = 0.2	9.22
x1 = 0.2999	22.01
x1 = 0.4003	47.32
x1 = 0.4989	90.79
x1 = 0.6002	174.5
x1 = 0.7008	325.1
x1 = 0.7993	472.2
x1 = 0.9002	830.6

CC(C)CO + CCO
101 kPa, x2 = 0.5
Settings	viscosity [mPa·s]
308.15 K	1.598
313.15 K	1.479
318.15 K	1.308

CCCC=O + CCO
298.1 K, 101 kPa
Settings	viscosity [mPa·s]
x1 = 0.1009	1.261
x1 = 0.1952	1.413
x1 = 0.3034	1.484
x1 = 0.3333	1.463
x1 = 0.3989	1.366
x1 = 0.5109	1.103
x1 = 0.5976	0.896
x1 = 0.7003	0.7
x1 = 0.7924	0.564
x1 = 0.8988	0.468

CCCCCC + CCO
298.15 K
Settings	viscosity [mPa·s]
100 kPa, x1 = 0.0432	0.9721
100 kPa, x1 = 0.1024	0.848
100 kPa, x1 = 0.1981	0.702
100 kPa, x1 = 0.3027	0.5885
100 kPa, x1 = 0.4066	0.5026
100 kPa, x1 = 0.5031	0.439
100 kPa, x1 = 0.5999	0.3881
100 kPa, x1 = 0.7007	0.3479
100 kPa, x1 = 0.8026	0.3191
100 kPa, x1 = 0.8955	0.3025
100 kPa, x1 = 0.971	0.2965
101 kPa, x1 = 0.0149	1.046
101 kPa, x2 = 0.1035	0.3031
101 kPa, x2 = 0.1286	0.306
101 kPa, x2 = 0.2846	0.3322
101 kPa, x2 = 0.3428	0.3666
101 kPa, x2 = 0.4373	0.4133
101 kPa, x2 = 0.4727	0.4249
101 kPa, x2 = 0.533	0.4651
101 kPa, x2 = 0.5802	0.4994
101 kPa, x2 = 0.6757	0.5717
101 kPa, x2 = 0.7394	0.6511
101 kPa, x2 = 0.8689	0.8184
101 kPa, x2 = 0.8995	0.8715
101 kPa, x2 = 0.9793	1.033
101.33 kPa, x2 = 0.0569	0.315
101.33 kPa, x2 = 0.1499	0.325
101.33 kPa, x2 = 0.2731	0.363
101.33 kPa, x2 = 0.439	0.438
101.33 kPa, x2 = 0.5984	0.528
101.33 kPa, x2 = 0.7241	0.632
101.33 kPa, x2 = 0.8282	0.757
101.33 kPa, x2 = 0.9076	0.895
101.33 kPa, x2 = 0.9673	1.022

COC(N)=O + CCOC(N)=O
101.33 kPa, x2 = 0.5
Settings	viscosity [mPa·s]
298.15 K	7.716
313.15 K	4.41
